ChEMBL document CHEMBL1157878, “Synthesis and antiproliferative properties of ibuprofen-oligo(3-hydroxybutyrate) conjugates” (Eur J Med Chem, 2010)

Key:
HT-29 = experiment: Cytotoxicity against human HT-29 cells after 72 hrs by MTT assay; type: functional, cell-based; conditions: HT-29, 72 h
HCT-116 = experiment: Cytotoxicity against human HCT116 cells after 72 hrs by MTT assay; type: functional, cell-based; conditions: HCT-116, 72 h

## CC(C)Cc1ccc(C(C)C(=O)O)cc1 (stereo unspecified) [IBUPROFEN]
HT-29
  IC50: 552 µM
HCT-116
  IC50: 448 µM

## CC(C)Cc1ccc(C(C)C(=O)OC(C)CC(=O)OC(C)CC(=O)OC(C)CC(=O)OC(C)CC(=O)OC(C)CC(=O)OC(C)CC(=O)O)cc1 (stereo unspecified)
HT-29
  IC50: 77 µM
HCT-116
  IC50: 53 µM

## CC(C)Cc1ccc(C(C)C(=O)OC(C)CC(=O)OC(C)CC(=O)OC(C)CC(=O)OC(C)CC(=O)O)cc1 (stereo unspecified)
HT-29
  IC50: 37 µM
HCT-116
  IC50: 31 µM
